Test system: GM01896 cells (MPS II dermal fibroblasts)
Test: Assay 1: MPS cellular assay, MPS II (heparan sulfate disaccharide biomarkers by LC-MS)
Assay type: cell-based, human
Settings: Homo sapiens, Fibroblast, Assay 1 for MPS II, heparan sulfate disaccharide biomarkers (I2a4, I2a6, I2S0 and/or I2S6), read-out: IC50 Range
How it was run: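 MPS II patient dermal fibroblasts (GM01896) treated with compound at ≤30 μM for 4 to 21 days. Heparan sulfate GAGs isolated by anion exchange, digested with heparinases I-III, aniline-tagged against [13C6]aniline standards and quantified by LC-MS; IC50 from curve fitting. Viability monitored by alamar blue or ATP.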

SMILES	IC50 [µM]
Cc1nn(C)c2cc(-c3cc(Nc4ccc5c(C)c(C)n(C)c5c4)nc(N4CCOCC4)n3)ccc12 [[6-(1,3-dimethyl(1H-indazol-6-yl))-2-morpholin-4-ylpyrimidin-4-yl](1,2,3-trimethylindol-6-yl)amine]	1 to 5
CNC(=O)c1ccc(Nc2cc(-c3ccc4c(c3)ncn4CC3CC3)nc(N3CCOCC3)n2)cc1 [[4-({6-[1-(cyclopropylmethyl)benzimidazol-5-yl]-2-morpholin-4-ylpyrimidin-4-yl}amino)phenyl]-N-methylcarboxamide]	< 0.5
Cc1nn(CCCN(C)C)c2cc(-c3cc(Nc4ccc(Cl)cc4)nc(N4CCOCC4)n3)ccc12 [[3-(6-{6-[(4-chlorophenyl)amino]-2-morpholin-4-ylpyrimidin-4-yl}-3-methyl(1H-indazolyl))propyl]dimethylamine]	0.5 to 1
Cn1ncc2ccc(-c3cc(Nc4ccc(-n5nccn5)cc4)nc(N4CCOCC4)n3)cc21 [[6-(1-methyl(1H-indazol-6-yl))-2-morpholin-4-ylpyrimidin-4-yl](4-(1,2,3-triazol-2-yl)phenyl)amine]	< 0.5
Clc1ccc(Nc2cc(-c3ccc4[nH]ncc4c3)nc(N3CCOCC3)n2)cc1 [N-(4-chlorophenyl)-6-(1H-indazol-5-yl)-2-morpholinopyrimidin-4-amine]	1 to 5
CN(C)c1nn(C)c2cc(-c3cc(Nc4ccc(Cl)cc4)nc(N4CCOCC4)n3)ccc12 [(6-{6-[(4-chlorophenyl)amino]-2-morpholin-4-ylpyrimidin-4-yl}-1-methyl(1H-indazol-3-yl))dimethylamine]	1 to 5
Cn1c(N2CCCC2)nc2ccc(-c3cc(Nc4ccc(Cl)cc4)nc(N4CCOCC4)n3)cc21 [(4-chlorophenyl)[6-(1-methyl-2-pyrrolidinylbenzimidazol-6-yl)-2-morpholin-4-ylpyrimidin-4-yl]amine]	1 to 5
CCn1ccc2ccc(Nc3cc(-c4ccc5cnn(C)c5c4)nc(N4CCOCC4)n3)cc21 [(1-ethylindol-6-yl)[6-(1-methyl(1H-indazol-6-yl))-2-morpholin-4-ylpyrimidin-4-yl]amine]	1 to 5
CNC(=O)c1ccc(Nc2cc(-c3ccc4nc(C)n(C5CC5)c4c3)nc(N3CCOCC3)n2)cc1 [(4-{[6-(1-cyclopropyl-2-methylbenzimidazol-6-yl)-2-morpholin-4-ylpyrimidin-4-yl]amino}phenyl)-N-methylcarboxamide]	< 0.5
Cc1nn(C)c2cc(-c3cc(Nc4ccc(-c5ncno5)cc4)nc(N4CCOCC4)n3)ccc12 [[6-(1,3-dimethyl(1H-indazol-6-yl))-2-morpholin-4-ylpyrimidin-4-yl](4-(1,2,4-oxadiazol-5-yl)phenyl)amine]	1 to 5
Cc1nn(C)c2cc(-c3cc(Nc4ccc(-n5nccn5)cc4)nc(N4CCOCC4)n3)cnc12 [[6-(1,3-dimethylpyrazolo[4,5-b]pyridin-6-yl)-2-morpholin-4-ylpyrimidin-4-yl](4-(1,2,3-triazol-2-yl)phenyl)amine]	< 0.5
CNC(=O)c1ccc(Nc2cc(-c3ccc4cnn(CCCN5CCOCC5)c4c3)nc(N3CCOCC3)n2)cc1 [N-methyl[4-({2-morpholin-4-yl-6-[1-(3-morpholin-4-ylpropyl)(1H-indazol-6-yl)]pyrimidin-4-yl}amino)phenyl]carboxamide]	< 0.5
Cc1ccc(Nc2cc(-c3ccc4c(cnn4C)c3)nc(N3CCOCC3)n2)cc1 [[6-(1-methyl(1H-indazol-5-yl))-2-morpholin-4-ylpyrimidin-4-yl](4-methylphenyl)amine]	1 to 5
Cc1nn(C)c2cc(-c3cc(Nc4ccc(-c5[nH]ncc5F)cc4)nc(N4CCOCC4)n3)ccc12 [[6-(1,3-dimethyl(1H-indazol-6-yl))-2-morpholin-4-ylpyrimidin-4-yl][4-(4-fluoropyrazol-5-yl)phenyl]amine]	0.5 to 1
Cn1ncc2ccc(-c3cc(Nc4ccccc4)nc(N4CCOCC4)n3)cc21 [6-(1-methyl-1H-indazol-6-yl)-2-morpholino-N-phenylpyrimidin-4-amine]	1 to 5
Cc1nn(C)c2cc(-c3cc(Nc4ccc5cn(C)nc5c4)nc(N4CCOCC4)n3)ccc12 [[6-(1,3-dimethyl(1H-indazol-6-yl))-2-morpholin-4-ylpyrimidin-4-yl](2-methyl(2H-indazol-6-yl))amine]	1 to 5
Cn1cnc2cc(Nc3cc(-c4ccc5cnn(C)c5c4)nc(N4CCOCC4)n3)ccc21 [[6-(1-methyl(1H-indazol-6-yl))-2-morpholin-4-ylpyrimidin-4-yl](1-methylbenzimidazol-5-yl)amine]	1 to 5
Clc1ccc(Nc2cc(-c3ccc4cnn(CC5CC5)c4c3)nc(N3CCOCC3)n2)cc1 [(4-chlorophenyl){6-[1-(cyclopropylmethyl)(1H-indazol-6-yl)]-2-morpholin-4-ylpyrimidin-4-yl}amine]	1 to 5
CNC(=O)c1ccc(Nc2cc(-c3ccc4cnn(CCN(C)C)c4c3)nc(N3CCOCC3)n2)cc1 [{4-[(6-{1-[2-(dimethylamino)ethyl](1H-indazol-6-yl)}-2-morpholin-4-ylpyrimidin-4-yl)amino]phenyl}-N-methylcarboxamide]	0.5 to 1
Cc1nn(C)c2cc(-c3cc(Nc4cc(Cl)c5ccn(C)c5c4)nc(N4CCOCC4)n3)ccc12 [[6-(1,3-dimethyl(1H-indazol-6-yl))-2-morpholin-4-ylpyrimidin-4-yl](4-chloro-1-methylindol-6-yl)amine]	1 to 5
COCCn1ncc2ccc(-c3cc(Nc4ccc(C(=O)OC)cc4)nc(N4CCOCC4)n3)cc21 [methyl 4-({6-[1-(2-methoxyethyl)(1H-indazol-6-yl)]-2-morpholin-4-ylpyrimidin-4-yl}amino)benzoate]	0.5 to 1
Cc1nn(CCCN2CCCC2)c2cc(-c3cc(Nc4ccc(Cl)cc4)nc(N4CCOCC4)n3)ccc12 [(4-chlorophenyl){6-[3-methyl-1-(3-pyrrolidinylpropyl)(1H-indazol-6-yl)]-2-morpholin-4-ylpyrimidin-4-yl}amine]	0.5 to 1
Cn1ncc2ccc(-c3cc(Nc4ccc(-c5cc[nH]c5)cc4)nc(N4CCOCC4)n3)cc21 [[6-(1-methyl(1H-indazol-6-yl))-2-morpholin-4-ylpyrimidin-4-yl](4-pyrrol-3-ylphenyl)amine]	0.5 to 1
CNC(=O)c1ccc(Nc2cc(-c3ccc4ncn(CCCN5CCOCC5)c4c3)nc(N3CCOCC3)n2)cc1 [N-methyl[4-({2-morpholin-4-yl-6-[1-(3-morpholin-4-ylpropyl)benzimidazol-6-yl]pyrimidin-4-yl}amino)phenyl]carboxamide]	1 to 5
CNC(=O)c1ccc(Nc2cc(-c3ccc4c(cnn4CCN4CCOCC4)c3)nc(N3CCOCC3)n2)cc1 [N-methyl[4-({2-morpholin-4-yl-6-[1-(2-morpholin-4-ylethyl)(1H-indazol-5-yl)]pyrimidin-4-yl}amino)phenyl]carboxamide]	0.5 to 1
Cc1nn(C)c2cc(-c3cc(Nc4ccc(-c5cn(C)cn5)cc4)nc(N4CCOCC4)n3)ccc12 [[6-(1,3-dimethyl(1H-indazol-6-yl))-2-morpholin-4-ylpyrimidin-4-yl][4-(1-methylimidazol-4-yl)phenyl]amine]	1 to 5
CNC(=O)c1ccc(Nc2cc(-c3ccc4cnn(CCCN5CCCC5)c4c3)nc(N3CCOCC3)n2)cc1 [N-methyl[4-({2-morpholin-4-yl-6-[1-(3-pyrrolidinylpropyl)(1H-indazol-6-yl)]pyrimidin-4-yl}amino)phenyl]carboxamide]	< 0.5

From US20190151312A1, “HEPARAN SULFATE BIOSYNTHESIS INHIBITORS FOR THE TREATMENT OF DISEASES” (BioMarin Pharmaceutical Inc., priority 2014, published 2019)
